Assay results as given in patent US11572590B2, “Methods for evaluating tumor cell spheroids using 3D microfluidic cell culture device” (Dana-Farber Cancer Institute, Inc., priority 2017, dated 2023).
Read-outs that look alike come from different tables or passages of the source.

What was measured:
off-target kinases [1] = biological target: T1, off-target kinases (Homo sapiens, UniProt Q15139); assay: SelectScreen Kinase Profiling, single point inhibition and IC50 for off-target kinases; assay type: biochemical; conditions: PRKD1 (PKC mu), ATP Km app, ZLYTE
T1 sequence (Q15139 1-912): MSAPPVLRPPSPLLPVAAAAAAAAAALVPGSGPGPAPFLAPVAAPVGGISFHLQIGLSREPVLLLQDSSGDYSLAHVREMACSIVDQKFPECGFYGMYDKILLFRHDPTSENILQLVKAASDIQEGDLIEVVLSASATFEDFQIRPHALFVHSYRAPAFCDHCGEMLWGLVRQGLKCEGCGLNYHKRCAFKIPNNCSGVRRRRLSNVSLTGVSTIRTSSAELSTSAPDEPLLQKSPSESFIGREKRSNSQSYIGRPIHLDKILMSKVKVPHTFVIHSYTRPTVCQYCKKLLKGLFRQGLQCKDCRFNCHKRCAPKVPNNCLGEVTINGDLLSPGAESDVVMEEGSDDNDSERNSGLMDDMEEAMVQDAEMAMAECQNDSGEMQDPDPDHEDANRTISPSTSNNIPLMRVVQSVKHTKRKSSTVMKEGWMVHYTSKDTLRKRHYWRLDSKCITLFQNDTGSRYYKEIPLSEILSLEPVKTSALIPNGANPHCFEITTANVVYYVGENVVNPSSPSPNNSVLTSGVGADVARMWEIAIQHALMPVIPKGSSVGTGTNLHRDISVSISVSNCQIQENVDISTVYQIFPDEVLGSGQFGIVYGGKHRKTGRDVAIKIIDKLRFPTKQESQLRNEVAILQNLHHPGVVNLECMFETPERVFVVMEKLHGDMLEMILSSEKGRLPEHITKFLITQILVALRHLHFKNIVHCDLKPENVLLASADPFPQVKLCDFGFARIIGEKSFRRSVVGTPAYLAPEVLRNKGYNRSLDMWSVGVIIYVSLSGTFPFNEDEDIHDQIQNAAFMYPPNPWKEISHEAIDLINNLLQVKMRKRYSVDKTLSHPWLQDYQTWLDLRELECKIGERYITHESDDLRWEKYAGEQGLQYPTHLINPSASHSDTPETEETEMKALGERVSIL

off-target kinases [2] = biological target: T2, off-target kinases (Homo sapiens, UniProt Q9UF33); assay: as above; assay type: biochemical; conditions: EPHA6, LanthaScreen Binding
T2 sequence (Q9UF33 23-1036): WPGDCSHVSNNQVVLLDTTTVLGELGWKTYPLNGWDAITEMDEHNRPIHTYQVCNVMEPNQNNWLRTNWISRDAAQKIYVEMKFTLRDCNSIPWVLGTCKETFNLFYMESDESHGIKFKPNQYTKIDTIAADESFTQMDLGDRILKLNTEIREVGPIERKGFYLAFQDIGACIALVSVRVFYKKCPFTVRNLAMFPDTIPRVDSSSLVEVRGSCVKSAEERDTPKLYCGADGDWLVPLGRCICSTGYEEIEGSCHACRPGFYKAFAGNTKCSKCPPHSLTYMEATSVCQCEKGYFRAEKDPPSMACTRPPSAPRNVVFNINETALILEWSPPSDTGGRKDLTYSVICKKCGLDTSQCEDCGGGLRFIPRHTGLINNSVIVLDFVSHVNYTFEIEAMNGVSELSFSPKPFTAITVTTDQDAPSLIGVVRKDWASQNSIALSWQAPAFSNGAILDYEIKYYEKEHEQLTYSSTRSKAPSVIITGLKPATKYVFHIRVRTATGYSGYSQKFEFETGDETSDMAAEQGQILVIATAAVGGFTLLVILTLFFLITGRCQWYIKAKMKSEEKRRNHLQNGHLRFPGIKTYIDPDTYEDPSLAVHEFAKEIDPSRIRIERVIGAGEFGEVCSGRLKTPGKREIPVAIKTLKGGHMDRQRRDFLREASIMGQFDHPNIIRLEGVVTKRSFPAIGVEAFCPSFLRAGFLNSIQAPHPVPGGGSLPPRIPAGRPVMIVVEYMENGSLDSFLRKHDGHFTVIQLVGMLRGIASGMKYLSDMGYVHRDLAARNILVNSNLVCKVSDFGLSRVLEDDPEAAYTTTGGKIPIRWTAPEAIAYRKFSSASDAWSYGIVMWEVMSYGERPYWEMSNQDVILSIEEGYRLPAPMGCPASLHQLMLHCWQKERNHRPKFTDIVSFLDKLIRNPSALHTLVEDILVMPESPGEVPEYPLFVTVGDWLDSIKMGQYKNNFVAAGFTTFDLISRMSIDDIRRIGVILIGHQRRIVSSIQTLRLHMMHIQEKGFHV

**Q.** What does the source list for `N#Cc1cc(-c2ncnc(Nc3ccc(N4CCN(C5COC5)CC4)cc3)n2)ccc1OC1CCOCC1` [Compound 1, 5-(4-((4-(4-(oxetan-3-yl)piperazin-1-yl)phenyl)amino)-1,3,5-triazin-2-yl)-2-((tetrahydro-2H-pyran-4-yl)oxy)benzonitrile]?
**A.** inhibition (off-target kinases [1]; read-out: % Inhibition 1): 100%; inhibition (off-target kinases [1]; read-out: % Inhibition 2): 95%; inhibition (off-target kinases [1]; read-out: % Inhibition Avg): 98%; inhibition (off-target kinases [2]; read-out: % Inhibition 1): 9%; inhibition (off-target kinases [2]; read-out: % Inhibition 2): 20%; inhibition (off-target kinases [2]; read-out: % Inhibition Avg): 14%
